# Measurements: PMC12707362, “Targeting Aurora Kinases as Essential Cell‐Cycle Regulators to Deliver Multi‐Stage Antimalarials Against Plasmodium Falciparum” (Angewandte Chemie (International Ed. in English), 2025)
# Tests used:
# [1] = test system: hepatocellular carcinoma (HepG2) cells; experiment: Cytotoxicity counter-screening (MTT), HepG2; details: read-out: HepG2 CC50; 48 h, MTT
# Experimental: HepG2 and CHO cells were maintained at 37 °C, under a humidified atmosphere of 5% CO2, in DMEM high glucose media (Gibco) supplemented with 10% heat-inactivated FBS and 1% (v/v) Penicillin-Streptomycin antibiotics. […] The supernatant was discarded, and the cell pellet was resuspended in 1 mL DMEM media for cell counting by Trypan Blue. To determine the toxicity, cells were resuspended and seeded at a concentration of 1x10^4 cells/well in a 96-well plate and incubated for 24 h^[9,10]. Cells were treated in duplicate with a 10-fold serial dilution starting at 100 ug/mL of inhibitor in new media. After 48 h incubation, the viable cells were measured using the MTT tetrazolium reduction assay, where sterile 25 µL of a 5 mg/mL MTT was added to each well and incubated for 4 h before the […] formazan crystals were dissolved with 100 µL DMSO (Merck) per well. The absorbance, a measure of intracellular reduction of MTT, was measured at 540 nm (Multiskan GO). Emetine (50 µM) was included as a positive drug control, and the background was subtracted from all data before being normalised to the untreated^[9,10].
# eLogD = format: physicochemical
# Source text: (§1) In vitro ADME analysis for logD, kinetic solubility (PBS, pH 7.4), human liver microsome clearance and t1/2, rat hepatocyte clearance and t1/2, and protein binding in Albumax media (simulating the malaria parasite culture media) was all performed as per standard assays by TCG LifeSciences.
# Rat hepatocyte clearance = format: in vitro ADME; details: rat hepatocytes; for half-life: read-out: Rat hepatocyte t1/2
# Source text: as §1
# [2] = Human liver microsome clearance; format: in vitro ADME; details: human liver microsomes; for microsomal CLint: read-out: HL microsome CLint; for half-life: read-out: HL microsome t1/2
# Source text: as §1
# recombinant PfArk1 = recombinant PfArk1 (Plasmodium falciparum, UniProt C6KSQ1); experiment: KinaseSeeker three-hybrid split-luciferase competitive binding assay, PfArk1
# Experimental: (§2) Supplementary Figure S3: (A) Single-point activity profile of selected inhibitors at 1 µM against recombinant PfArk-1 and PfArk-3 proteins, utilising a three-hybrid split-luciferase competitive binding assay (KinaseSeeker™).
# [3] = test system: intracellular hemozoin formation in P. falciparum; experiment: Cellular heme fractionation assay; format: cell-based, Plasmodium falciparum; details: intracellular fractions
# Experimental: The assay set-up followed that described in^[30,32] optimised to a multi-well colourimetric assay for determining heme species in P. falciparum. Briefly, P. falciparum ring-staged parasites were incubated at 2xIC50 value of the test inhibitor for 24 hours. Thereafter, the incubated parasites (trophozoites) were harvested and isolated through various steps of a cellular fractionation process. The cellular fractionations allow for direct quantification of the three major heme species in the trophozoites, namely hemoglobin, free heme, and hemozoin. These heme species can be determined spectroscopically using the aqueous pyridine-ferrochrome method. This method is based on the principle that aqueous pyridine forms a low-spin complex with heme but not hemozoin, and since the absorbance obeys Beer’s law, it allows for the quantification of heme concentration in solution. The various heme fractions were recovered and measured as follows, after the P. falciparum trophozoite cells were harvested following exposure to probe inhibitors:
# Water (100 µL) was added to lyse the cells, and the suspension was sonicated for 5 min. This was followed by the addition of 50 µL 0.2M HEPES buffer pH 7.5, and then centrifugation at 3600 rpm for 20 min. The resulting supernatant (containing hemoglobin) was then transferred into an adjacent set of wells on the same plate. To which 50 µL of each of 4% SDS, 0.3 M NaCl and 25% pyridine were added, respectively. Thereafter, 200 µL of the resulting solution ([…]) was transferred to a set of wells on a separate 96-well plate for UV-vis analysis^[32,33].
# The pellet from the centrifugation step described above consists of heme and hemozoin. […] Then 50 µL each of HEPES 0.2 M pH 7.5, 0.3 M NaCl, and 25% pyridine were added, respectively. The mixture was centrifugated at 3600 rpm and the supernatant (250 µL) was transferred to adjacent wells on a separate 96-well plate. Thereafter, 150 µL of water was added and 200 µL of the mixture transferred to a set of wells on a separate plate for UV-vis analysis^[32,33].
# To the remaining pellet, 50 µL each of water and 0.3 M NaOH were added, and the mixture was sonicated for 15 min. After 30 min of incubation at room temperature, 50 µL each of HEPES 0.2 M pH 7.5, 0.3 M HCl, and 25% pyridine were added, respectively. To the resulting mixture (250 µL), 150 µL of water was then added, and 200 µL of this was transferred to a set of wells on a separate 96-well plate for UV-vis analysis^[32,33].
# Cell counts for the assay were performed using the flow cytometry method described in^[33]. Cell counting determines the number of trophozoites per sample and, therefore, allows for the quantification of the amount of heme found in each individual cell.
# recombinant PfArk3 = experiment: KinaseSeeker three-hybrid split-luciferase competitive binding assay, PfArk3; set-up: species or system Plasmodium falciparum; details: single point 1 µM
# Experimental: as §2
# Sequence of recombinant PfArk1 (C6KSQ1 entry or part of it): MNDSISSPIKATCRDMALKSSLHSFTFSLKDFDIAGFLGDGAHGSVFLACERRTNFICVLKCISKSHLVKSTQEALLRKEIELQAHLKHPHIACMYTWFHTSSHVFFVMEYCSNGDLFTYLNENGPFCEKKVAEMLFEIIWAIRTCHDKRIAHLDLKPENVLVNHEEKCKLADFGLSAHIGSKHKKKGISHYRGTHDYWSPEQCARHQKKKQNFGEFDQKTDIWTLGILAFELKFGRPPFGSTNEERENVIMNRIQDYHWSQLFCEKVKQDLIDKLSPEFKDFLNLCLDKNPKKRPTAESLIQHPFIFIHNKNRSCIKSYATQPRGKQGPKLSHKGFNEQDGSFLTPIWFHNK
smiles,measurement,setting,value
"CCN(CCO)CCCOc1ccc2c(Nc3cc(CC(=O)Nc4cccc(F)c4)n[nH]3)ncnc2c1 [AZD-1152, AZD-1152-HQPA]",CC50,[1],25.9 µM
"O=C(Nc1c[nH]nc1-c1nc2ccc(CN3CCOCC3)cc2[nH]1)NC1CC1 [AT83, AT9283]",eLogD pH 7.4,eLogD,2.2
same,Rat hepatocyte CLint,Rat hepatocyte clearance,12.6 µL min^−1/10e6 cells
same,half-life,Rat hepatocyte clearance,0.917 h
same,microsomal CLint,[2],3.5 µL/min/mg
same,half-life,[2],6.58 h
same,inhibition of PfArk1,recombinant PfArk1; single point 1 µM,30%
"COc1cc(N2CCC(N3CCN(C)CC3)CC2)ccc1Nc1ncc(Cl)c(Nc2ccccc2S(=O)(=O)C(C)C)n1 [TAE684, NVP-TAE684]",eLogD pH 7.4,eLogD,3.4
same,free heme level,[3],significant increase in free heme
same,hemozoin level,[3],decrease in hemozoin formation
same,Rat hepatocyte CLint,Rat hepatocyte clearance,3.5 µL min^−1/10e6 cells
same,half-life,Rat hepatocyte clearance,3.28 h
same,microsomal CLint,[2],25.4 µL/min/mg
same,half-life,[2],0.917 h
same,IC50,recombinant PfArk1,0.146 ± 0.02 µM
"CCN1CCN(C(=O)Cc2ccc(Nc3ncc(F)c(Nc4ccc(C(=O)Nc5ccccc5Cl)cc4)n3)cc2)CC1 [AAi I, Aurora A Inhibitor I]",inhibition of PfArk3,recombinant PfArk3,40%
"COc1cc2c(Nc3ccc(NC(=O)c4ccccc4)cc3)ncnc2cc1OCCCN1CCOCC1 [ZM-39, ZM-447439]",free heme level,[3],significant increase in free heme
same,hemozoin level,[3],decrease in hemozoin formation
same,CC50,[1],26.5 µM
